Test system: developing adjuvant arthritis
Assay: Freund's complete adjuvant induced rat model of arthritis
Type: in vivo
Conditions: reference treatment, dose not stated
Source text: Freund's complete adjuvant induced arthritis in the rat is an experimental model of polyarthritis that has been widely used for nonclinical testing of numerous anti-arthritic agents that are either under nonclinical or clinical investigation, or are currently used as therapeutics in this disease.

Q: How did the “inhibition of ankle diameter AUC (d7-14) increase” value turn out when `C[C@@H]1C[C@H]2[C@@H]3CCC4=CC(=O)C=C[C@]4(C)[C@@]3(F)[C@@H](O)C[C@]2(C)[C@@]1(O)C(=O)CO` [dexamethasone, reference compound] was run?
A: 71%

Q: And the “reduction of histopathologic bone resorption” value?
A: 97%

Q: And the “reduction of histopathologic inflammation” value?
A: 56%

Source: US20140120060A1, “TREATMENT OF RHEUMATOID ARTHRITIS AND ASTHMA USING PI3 KINASE INHIBITORS” (INFINITY PHARMACEUTICALS, INC., priority 2012, published 2014)
